PubChem BioAssay (NCI)
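Assay format: 96-well plates, 48-hour exposure. The concentration for 50% growth inhibition is given as GI50. The concentration for full growth arrest is given as TGI.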

Tests used:
Assay in all cases: NCI-60 cell line screen, 48 h
NCI-H460 lung = test system: NCI-H460 lung
TK-10 renal = test system: TK-10 renal
NCI/ADR-RES ovarian = test system: NCI/ADR-RES ovarian
CAKI-1 renal = test system: CAKI-1 renal
OVCAR-4 ovarian = test system: OVCAR-4 ovarian
HCT-15 colon = test system: HCT-15 colon
U251 CNS = test system: U251 CNS
A549 NSCLC = test system: A549 NSCLC
K-562 leukemia = test system: K-562 leukemia
M14 melanoma = test system: M14 melanoma
CCRF-CEM leukemia = test system: CCRF-CEM leukemia
T-47D breast = test system: T-47D breast
OVCAR-5 ovarian = test system: OVCAR-5 ovarian
LOX IMVI melanoma = test system: LOX IMVI melanoma
SN12C renal = test system: SN12C renal
HT29 colon = test system: HT29 colon
PC-3 prostate = test system: PC-3 prostate
MDA-N = test system: MDA-N
MOLT-4 leukemia = test system: MOLT-4 leukemia

Structure (SMILES) | TGI (NCI-H460 lung) | TGI (TK-10 renal) | TGI (NCI/ADR-RES ovarian) | TGI (CAKI-1 renal) | TGI (OVCAR-4 ovarian) | TGI (HCT-15 colon) | TGI (U251 CNS) | TGI (A549 NSCLC) | TGI (K-562 leukemia) | TGI (M14 melanoma) | TGI (CCRF-CEM leukemia) | TGI (T-47D breast) | TGI (OVCAR-5 ovarian) | TGI (LOX IMVI melanoma) | TGI (SN12C renal) | TGI (HT29 colon) | TGI (PC-3 prostate) | TGI (MDA-N) | TGI (MOLT-4 leukemia) | GI50 (SN12C renal)
CCc1cc(-c2nsc(=O)o2)c(S(=O)(=O)CC)s1 | > 100 µM | > 100 µM | > 100 µM | > 100 µM | > 100 µM | > 100 µM | > 100 µM | > 100 µM | > 100 µM | > 100 µM | > 100 µM | > 100 µM | > 100 µM | > 100 µM | > 100 µM | > 100 µM | 85.1 µM | > 100 µM |  | 
[N-]=[N+]=NC1(N=[N+]=[N-])C(=O)NN=C(c2ccccc2)C1=O (stereo not drawn) | > 100 µM | > 100 µM | > 100 µM |  | > 100 µM | > 100 µM | > 100 µM | > 100 µM | > 100 µM | > 100 µM | 83.9 µM | 94.3 µM |  | 92.9 µM | > 100 µM | > 100 µM | > 100 µM | 61.3 µM | 73.6 µM | 
O=C1CC2[C@@H](N3CCCC3)CCC(N1Cc1ccccc1)C2(O)O (stereo partly drawn) | > 100 µM | > 100 µM | > 100 µM | > 100 µM |  | > 100 µM | > 100 µM | > 100 µM | > 100 µM | > 100 µM | > 100 µM | > 100 µM | > 100 µM | > 100 µM | > 100 µM | > 100 µM | > 100 µM | > 100 µM | > 100 µM | 
CCOC(=O)Cc1ccc(Nc2nc3cc(C(F)(F)F)ccc3nc2C(=O)OCC)cc1 | > 100 µM | > 100 µM | > 100 µM | > 100 µM | > 100 µM | > 100 µM | > 100 µM | > 100 µM |  | > 100 µM |  | > 100 µM | > 100 µM | > 100 µM | > 100 µM | > 100 µM | > 100 µM | > 100 µM | > 100 µM | 
CC(=O)O[C@H]1CC[C@H]2[C@@H]3CCc4cc(O)c(I)cc4[C@H]3CC[C@]12C | 26.9 µM | 33.6 µM | 43.2 µM | 29.7 µM | 28 µM | 22.9 µM | 27.8 µM | 29.5 µM | > 100 µM | 27.3 µM |  | 31.7 µM | 32.2 µM | 30.2 µM | 37.2 µM | 33.2 µM | 20 µM | 31.3 µM | 61.6 µM | 18 µM
c1ccc(COCC23CCN(Cc4ccccc4)C(CC(OCc4ccccc4)C2)S3)cc1 (stereo not drawn) | > 100 µM |  | > 100 µM | > 100 µM | > 100 µM | > 100 µM | > 100 µM | > 100 µM | > 100 µM | > 100 µM | > 100 µM | > 100 µM | > 100 µM | > 100 µM | > 100 µM | > 100 µM | > 100 µM | > 100 µM | 69.9 µM | 
CC1(C)C(O)c2ccccc2OC1N1CCN(C2Oc3ccccc3C(O)C2(C)C)CC1 (stereo not drawn) | > 100 µM |  | > 100 µM | > 100 µM | > 100 µM | > 100 µM | > 100 µM | > 100 µM | > 100 µM | > 100 µM | > 100 µM | > 100 µM | > 100 µM | > 100 µM | > 100 µM | > 100 µM | > 100 µM | > 100 µM | > 100 µM | 
CCOC(=O)CSc1nc2ccccc2c(=O)n1N | > 100 µM | > 100 µM | > 100 µM | > 100 µM | > 100 µM | > 100 µM | > 100 µM | > 100 µM | > 100 µM | > 100 µM |  | > 100 µM | > 100 µM | > 100 µM | > 100 µM | > 100 µM | > 100 µM | > 100 µM | > 100 µM | 
O=C1CCC(=O)N1CNc1ccc2c(c1)Sc1ccccc1O2 |  | > 100 µM | > 100 µM | > 100 µM | > 100 µM | > 100 µM | > 100 µM | > 100 µM | > 100 µM | 99.2 µM | > 100 µM | > 100 µM | > 100 µM | 68.9 µM | 76.1 µM | 54.7 µM | > 100 µM | > 100 µM | > 100 µM | 
Cc1cc(S(=O)(=O)Nc2nc(N)n(-c3cnc4ccccc4n3)n2)c(S)cc1Cl | > 100 µM | > 100 µM | > 100 µM | > 100 µM | > 100 µM | > 100 µM | > 100 µM | > 100 µM | > 100 µM | > 100 µM | > 100 µM | > 100 µM | > 100 µM | > 100 µM | > 100 µM | > 100 µM | > 100 µM | > 100 µM |  | 
COc1ccc(C)c2c1N[C@](C)([C@]1(C)Nc3c(OC)ccc(C)c3C1=O)C2=O | > 100 µM |  | > 100 µM | > 100 µM | > 100 µM | > 100 µM | > 100 µM | > 100 µM | > 100 µM | > 100 µM | > 100 µM | > 100 µM | > 100 µM | > 100 µM | > 100 µM | > 100 µM | > 100 µM | > 100 µM | > 100 µM | 
CCCCCCCC1c2cc3[nH]c(cc4nc(cc5[nH]c(cc(n2)[C@@]1(C)CC(=O)N(C)C)c(C)c5CCC(=O)O)C(CCC(=O)O)=C4C)cc3C (stereo partly drawn) | 43.8 µM | 79.3 µM | 43.1 µM | > 100 µM | > 100 µM | 39.5 µM | 32.9 µM | > 100 µM | 56.7 µM | 29.8 µM | 42.6 µM | > 100 µM | 55.5 µM | 33.3 µM | 76.1 µM | 39.8 µM | 64 µM | > 100 µM |  | 
CC(C)=CCNc1ncnc2c1ncn2CCC(=O)OC(C)(C)C | > 100 µM | > 100 µM | > 100 µM |  | 40.4 µM | > 100 µM | > 100 µM | > 100 µM | > 100 µM | > 100 µM | > 100 µM | > 100 µM | > 100 µM | > 100 µM | > 100 µM | > 100 µM | > 100 µM | > 100 µM | > 100 µM | 
Cc1cc(Cl)nc(NC(=O)CSc2ccc(Cl)cc2)n1 | > 100 µM | > 100 µM | > 100 µM |  |  | > 100 µM | > 100 µM | > 100 µM | > 100 µM | > 100 µM | > 100 µM | > 100 µM | > 100 µM | > 100 µM | > 100 µM | > 100 µM | > 100 µM | > 100 µM | > 100 µM | 
N#Cc1c(C#N)c(-c2cccc([N+](=O)[O-])c2)n(-c2ccccc2)c1N |  | > 100 µM | > 100 µM | > 100 µM | > 100 µM | > 100 µM | > 100 µM | > 100 µM | > 100 µM | > 100 µM | > 100 µM | > 100 µM | > 100 µM | > 100 µM | > 100 µM | > 100 µM | > 100 µM | > 100 µM | > 100 µM | 
CCOC(=O)C(NNS(=O)(=O)c1ccc(C)cc1)S(=O)(=O)C(F)(F)C(F)(F)C(F)(F)C(F)(F)F (stereo not drawn) | > 100 µM | > 100 µM | > 100 µM | > 100 µM | > 100 µM | > 100 µM | > 100 µM | > 100 µM | > 100 µM | > 100 µM |  | > 100 µM | > 100 µM | > 100 µM | > 100 µM | > 100 µM | > 100 µM | > 100 µM | > 100 µM | 
O=C1O/C(=C\c2ccc(O)c(Br)c2)C(c2ccc(O)cc2)=C1Cl | 76.6 µM | > 100 µM | 82.4 µM | > 100 µM | > 100 µM | > 100 µM | > 100 µM | > 100 µM | > 100 µM | > 100 µM | 41.1 µM | > 100 µM | > 100 µM | > 100 µM |  | > 100 µM | > 100 µM | 74.5 µM | > 100 µM | 
COc1ccc(C2Oc3c(cccc3OC)C=C2[N+](=O)[O-])cc1OC (stereo not drawn) | > 100 µM | 81.8 µM | 53.4 µM | 38.3 µM | > 100 µM | 24 µM | 15.2 µM | > 100 µM | > 100 µM | 19.6 µM | > 100 µM | > 100 µM | 51.4 µM | 20.5 µM |  | > 100 µM | 26.5 µM | > 100 µM | > 100 µM | 
COC1Cc2c(C)c(OC(C)=O)c3cccnc3c2O1 (stereo not drawn) | 61.5 µM | > 100 µM | 67.4 µM | > 100 µM | 30.1 µM | 22.1 µM | > 100 µM | 34 µM | 86 µM | 27.7 µM | 34.1 µM | 62.3 µM | 32.7 µM |  | 37.8 µM | > 100 µM | > 100 µM | 46.3 µM | 43.1 µM | 
CCOC(=O)c1sc2nc(SC)nc(Nc3ccc4c(c3)OCCCO4)c2c1N |  | > 100 µM | > 100 µM | > 100 µM | > 100 µM | > 100 µM | > 100 µM | > 100 µM | > 100 µM | > 100 µM | > 100 µM | > 100 µM | > 100 µM | > 100 µM | > 100 µM | > 100 µM | > 100 µM | > 100 µM | 8.25 µM | 
